Laboratory results from paper PMC5537602, “TRPA1 channel mediates organophosphate-induced delayed neuropathy” (Cell Discovery, 2017).

Columns and labels:
hens = format: in vivo, hen; settings: hens
Description: The chosen adult Hyline Brown hens were raised individually in stainless steel wire cages. After 7 days of acclimatization, the chosen hens were randomly divided into groups (n=6–10 for each group). The hens in the delayed neuropathy groups were administered a single dose of 750 mg kg^−1 TOCP and repeated doses of 75 mg kg^−1 malathion by gavage. TOCP and malathion were dissolved in corn oil and administered at 0.65 ml kg^−1. In the HC030031 treatment groups, 100 mg kg^−1 HC030031 was administered by gavage daily beginning at day 0 or day 11. All hens were examined daily for signs of delayed neurotoxicity. A five-point graded scale was used to describe the clinical symptoms of delayed neuropathy, with 0 indicating normal ambulation; (1) suspected ataxia (lack of strength in the legs and tottering); (2) mild ataxia (slow, clumsy and unsteady gait); (3) gross ataxia (waddling gait and staggering and falling despite being active); (4) mild paralysis (typical paralytic posture and lame appearance); and (5) complete paralysis (unable to maintain posture, stand up or move at all), as described previously.

TRPV1 = biological target: T1, TRPV1 (Homo sapiens, UniProt Q8NER1); assay: Calcium fluorescence signal, HEK293 cells overexpressing TRPV1; format: cell-based; settings: 10 μM
T1 construct: expressed in transfected cells; host or cells: HEK293
Description: (§1) Figure S3. Specificity of malathion for TRPA1 channels. (A-F) Time course of the fluorescence signal induced by malathion (Mala, 10 μM) and the indicated positive agonists (10 μM) in HEK293 cells overexpressing TRPV1 (A), TRPV3 (B), TRPV4 (C), TRPM8 (D), TRPC4 (E) and TRPC5 (F) channels. The fluorescence signals are scaled as F/F0. EC indicates external solution. […]
(§2) cells for each tested TRP channel. All bars are presented as the mean ± SEM. […]

[1] = test system: hTRPA1 carrying single mutations (C414A, C421A, C621A, C641A, C665A or K710R); assay: Whole-cell patch-clamp of mutant hTRPA1 channels; format: cell-based, human; settings: 30 μM malathion
Description: Human embryonic kidney 293 (HEK293) cells were cultured in DMEM containing 10% (vol/vol) heat-inactivated fetal bovine serum, 100 units ml^−1 penicillin–streptomycin and 2 mM L-glutamine at 37 °C in a humidity-controlled sterile incubator with 5% CO2. All cell culture reagents were purchased from Life Technologies. HEK293 cells were transfected transiently with the corresponding plasmids using lipofectamine 2000 (Life Technologies). Transfection efficiency was monitored by co-transfecting EGFP plasmid which codes for the enhanced green fluorescent protein. Electrophysiological recordings were performed between 24 and 36 h after transfection.
Whole-cell patch-clamp recordings in DRG neurons (small diameter, […]) and HEK293 cells were operated at room temperature (23–25 °C) using EPC-10 amplifier and Patch Master Software (HEKA). […] Currents were sampled at 10 kHz and low-pass filtered at 2.9 kHz. The internal solution was as follows (in mM): 140 CsCl, 10 HEPES, 5 EGTA, 0.1 CaCl2 and 1 MgCl2, with pH adjusted to 7.2 by CsOH and osmolarity 295–300 mOsm. […] TRPA1 currents development was monitored with repetitive injections of 300 ms duration voltage ramps from −100 to +100 mV every 2 s and the holding potential was set to 0 mV for 50 ms, existing in both sides of the voltage ramp. […]

TRPM8 = biological target: T2, TRPM8 (Homo sapiens, UniProt Q7Z2W7); assay: Calcium fluorescence signal, HEK293 cells overexpressing TRPM8; format: cell-based; settings: 10 μM
T2 construct: expressed in transfected cells; host or cells: HEK293
Description: as §1, §2

mouse DRG neurons = assay: Single-cell calcium imaging (Fura-2/AM) of isolated DRG neurons; format: cell-based
Description: DRG neurons were isolated from young C57 BL/6 mice (4–5 weeks). The sections of thoracic and lumbar DRG neurons were rapidly isolated in calcium and magnesium-free PBS with low temperature conditions (ice-bath environment). The isolated tissues were cut into pieces with scissor and incubated for 30 min with 0.1% collagenase and 0.025% trypsin which were diluted by DMEM-F12 at 37 °C. After digestion, neurons were gently dissociated using Pasteur pipettes and then plated onto poly-D-lysine pre-coated glass cover slips. DRG neurons were cultured for 24 h before use.
Calcium influx signals were monitored using the ratio metric fluorescent indicator dye Fura-2/AM at room temperature (23–25 °C). Cells were incubated with 2 μM Fura-2/AM, which was generated by diluting the stock solution with normal external solution, for 30 min at 37 °C. […] The maximum excitation wave length of Fura-2/AM was changed to 340 nm from 380 nm when combined with calcium ions. Fura-2/AM was excited at 340 and 380 nm with a rapid switching monochromator obtained from TILL Photonics, and the mean fluorescence intensity ratios (F340/F380) reflected real-time changes in the concentration of intracellular free calcium ions. The external solution used in the DRG whole-cell patch-clamp recordings was also used for calcium imaging. Solutions were switched using a gravity-fed continuous focal perfusion system.

T1 sequence (Q8NER1 whole entry, species assumed): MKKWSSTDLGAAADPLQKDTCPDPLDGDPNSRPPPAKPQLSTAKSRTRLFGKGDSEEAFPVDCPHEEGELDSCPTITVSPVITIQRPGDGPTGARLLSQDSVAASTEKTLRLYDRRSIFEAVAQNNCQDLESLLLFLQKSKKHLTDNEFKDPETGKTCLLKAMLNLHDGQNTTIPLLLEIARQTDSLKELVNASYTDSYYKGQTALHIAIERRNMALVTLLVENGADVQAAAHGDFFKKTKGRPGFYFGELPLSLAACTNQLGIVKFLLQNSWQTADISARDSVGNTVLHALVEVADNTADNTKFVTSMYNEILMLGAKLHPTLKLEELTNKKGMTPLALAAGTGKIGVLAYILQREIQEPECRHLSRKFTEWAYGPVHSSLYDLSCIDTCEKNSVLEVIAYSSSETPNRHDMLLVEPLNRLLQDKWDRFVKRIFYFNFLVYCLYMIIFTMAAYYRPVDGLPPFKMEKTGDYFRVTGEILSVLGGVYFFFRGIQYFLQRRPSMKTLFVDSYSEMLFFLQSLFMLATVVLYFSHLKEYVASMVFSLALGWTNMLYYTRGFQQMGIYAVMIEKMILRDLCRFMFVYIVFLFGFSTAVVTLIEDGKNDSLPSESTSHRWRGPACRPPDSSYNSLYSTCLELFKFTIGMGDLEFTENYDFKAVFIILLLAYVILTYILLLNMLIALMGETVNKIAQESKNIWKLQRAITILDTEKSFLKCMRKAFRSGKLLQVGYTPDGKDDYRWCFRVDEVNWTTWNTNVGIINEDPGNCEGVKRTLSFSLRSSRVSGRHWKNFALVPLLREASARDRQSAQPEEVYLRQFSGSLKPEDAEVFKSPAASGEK
T2 sequence (Q7Z2W7 whole entry, species assumed): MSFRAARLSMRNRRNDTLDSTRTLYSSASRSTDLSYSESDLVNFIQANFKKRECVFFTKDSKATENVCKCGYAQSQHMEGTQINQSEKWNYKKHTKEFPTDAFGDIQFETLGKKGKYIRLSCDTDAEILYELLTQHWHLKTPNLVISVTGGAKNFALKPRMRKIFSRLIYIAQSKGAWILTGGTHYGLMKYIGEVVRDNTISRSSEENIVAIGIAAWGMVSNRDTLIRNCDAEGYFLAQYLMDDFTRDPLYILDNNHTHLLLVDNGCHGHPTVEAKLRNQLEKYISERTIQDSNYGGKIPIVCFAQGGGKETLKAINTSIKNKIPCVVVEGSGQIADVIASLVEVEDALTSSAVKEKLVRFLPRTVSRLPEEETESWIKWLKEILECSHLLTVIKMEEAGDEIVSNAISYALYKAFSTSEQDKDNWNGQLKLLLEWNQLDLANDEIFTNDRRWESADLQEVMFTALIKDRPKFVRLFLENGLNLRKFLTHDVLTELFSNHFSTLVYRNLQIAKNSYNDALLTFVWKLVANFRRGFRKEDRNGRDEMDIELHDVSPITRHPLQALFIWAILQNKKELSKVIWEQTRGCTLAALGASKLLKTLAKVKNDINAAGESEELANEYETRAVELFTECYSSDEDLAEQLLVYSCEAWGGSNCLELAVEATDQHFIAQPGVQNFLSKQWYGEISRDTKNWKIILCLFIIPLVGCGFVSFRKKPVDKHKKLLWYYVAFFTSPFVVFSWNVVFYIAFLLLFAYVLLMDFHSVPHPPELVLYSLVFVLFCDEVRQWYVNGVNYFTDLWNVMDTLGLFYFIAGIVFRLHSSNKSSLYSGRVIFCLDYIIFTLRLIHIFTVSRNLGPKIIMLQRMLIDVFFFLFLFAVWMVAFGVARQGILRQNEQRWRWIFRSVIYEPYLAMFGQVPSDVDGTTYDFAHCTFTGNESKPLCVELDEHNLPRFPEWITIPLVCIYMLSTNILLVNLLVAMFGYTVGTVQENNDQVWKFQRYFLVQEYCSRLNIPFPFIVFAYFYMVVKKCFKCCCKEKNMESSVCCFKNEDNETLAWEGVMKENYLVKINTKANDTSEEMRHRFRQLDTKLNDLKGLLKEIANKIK

| SMILES | effect on clinical signs of delayed neuropathy induced by TOCP or malathion (hens; HC030031 100 mg kg−1 daily by gavage from day 0 or day 11) | activation of TRPV1 (TRPV1) | response of mutant hTRPA1 compared to WT channels [1] | activation of TRPM8 (TRPM8) | [Ca2+]i response of DRG neurons from Trpa1−/− mice (mouse DRG neurons; Trpa1−/− neurons) | neurons displaying a robust increase in [Ca2+]i (mouse DRG neurons; wild-type small-diameter neurons, sequential application of AITC and malathion, 197/451) | clinical symptoms of delayed neuropathy (hens; malathion 75 mg kg−1 q.d. for 11 days, day 5) |
| --- | --- | --- | --- | --- | --- | --- | --- |
| CC(C)c1ccc(NC(=O)Cn2cnc3c2c(=O)n(C)c(=O)n3C)cc1 [HC030031] | significantly alleviated |  |  |  |  |  |  |
| CCOC(=O)CC(SP(=S)(OC)OC)C(=O)OCC (stereo not drawn) [malathion, S-[1,2-bis (ethoxycarbonyl)ethyl] O, O-dimethyl phosphorodithioate] |  | could not activate | significantly reduced | could not activate | thoroughly unresponsive | ~ 44% | slow and clumsy gait |
